Tests used:
human ABCG2 protein [1] = target: T1, human ABCG2 protein (Homo sapiens, UniProt Q9UNQ0); experiment: ABCG2-ATPase activity measurement (vanadate sensitive) in cholesterol loaded, isolated Sf9 membrane vesicles; assay type: biochemical; parameters: removing the full-length human ABCG2 cDNA (G482 variant) from pcDNA3.1/ABCG2 with SacI digestion; made in house; host or cells: Sf9 insect cells (baculovirus)
T1 sequence (Q9UNQ0 1-655): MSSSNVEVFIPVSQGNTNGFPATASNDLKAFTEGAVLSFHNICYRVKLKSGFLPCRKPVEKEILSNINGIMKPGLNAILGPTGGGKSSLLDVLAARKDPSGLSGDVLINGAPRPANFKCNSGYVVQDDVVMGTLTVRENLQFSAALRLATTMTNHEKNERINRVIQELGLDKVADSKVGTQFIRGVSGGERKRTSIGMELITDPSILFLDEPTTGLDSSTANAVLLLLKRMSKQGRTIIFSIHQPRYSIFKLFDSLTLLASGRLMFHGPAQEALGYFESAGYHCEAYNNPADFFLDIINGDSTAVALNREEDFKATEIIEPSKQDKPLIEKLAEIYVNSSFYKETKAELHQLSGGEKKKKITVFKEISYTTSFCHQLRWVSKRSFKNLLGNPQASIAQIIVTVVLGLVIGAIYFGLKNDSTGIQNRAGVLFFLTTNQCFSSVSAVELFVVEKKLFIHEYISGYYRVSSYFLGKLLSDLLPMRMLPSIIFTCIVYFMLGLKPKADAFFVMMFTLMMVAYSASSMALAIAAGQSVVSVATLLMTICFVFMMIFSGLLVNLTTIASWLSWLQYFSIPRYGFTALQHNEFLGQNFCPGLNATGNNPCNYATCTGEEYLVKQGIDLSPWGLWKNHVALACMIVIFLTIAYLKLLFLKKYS
Experimental: Thus, for direct measurements with ABCG2 in Sf9 membrane vesicles the membrane is loaded with cholesterol. After homogenization the sample is incubated with 2.5 mg/ml cholesterol-cyclodextrin complex (Cyclolab, Budapest) for 20 minutes at +4°C then followed by centrifugation steps.
ABCG2-Sf9 membrane vesicles (10 ug total protein) or isolated ABCG2 (0.2 ug) and separately added liposomes or reconstituted ABCG2-proteoliposome (0.2 ug) was added to assay mixture (final volume 150 ul) and preincubated for 5 or 20 minutes at 37°C when isolated ABCG2 and liposomes are used.
Reaction is started by adding Mg-ATP pH 7.0 to the reaction mixture at 3 mM and stopped after 20 or 30 minutes (for purified ABCG2) by 5% SDS.
Self-degradation of ATP is checked in each measurement by ABCG2 free samples.
Assay mixture was adapted for different setup with different type of ABCG2 samples. Assay buffer was 40 mM TRIS-MOPS pH 7.0 with 0.5 mM EGTA, 50 mM […] and 2 mM DTT.
For 'ABCG2 in Sf9 membrane vesicle' setup 5 mM Na-azide, 1 mM ouabain, were given to inhibit Sf9 intrinsic ATPases. ABC specific ATPase was measured as vanadate sensitive ATPase after determining the vanadate (1.3 mM) insensitive background.
A concentration set of K2HPO4 (10-50 ug/sample) is used as standard.

human ABCG2 protein [2] = target: T1, human ABCG2 protein; settings: cited from earlier work

SMILES: Cc1cn(-c2cc(NC(=O)c3ccc(C)c(Nc4nccc(-c5cccnc5)n4)c3)cc(C(F)(F)F)c2)cn1 [Nilotinib]
- effect on the ABCG2-ATPase activity (human ABCG2 protein [1]; isolated Sf9 cell membrane preparations, first an activation, then an inhibition, Figure 6): biphasic effect

SMILES: COc1ccc2c3c([nH]c2c1)[C@H](C=C(C)C)N1C(=O)[C@@H]2CCCN2C(=O)[C@@H]1C3 [FTC]
- inhibition of basal vanadate-sensitive ATPase activity of ABCG2 (human ABCG2 protein [2]): fully inhibited
- Inhibition (+ modifying agent 0.1% CHAPS) (human ABCG2 protein [1]): 70%
- Inhibition (Control) (human ABCG2 protein [1]): 70%

SMILES: C[C@H](CCC(=O)NCCC[N+](C)(C)CCCS(=O)(=O)[O-])[C@H]1CC[C@H]2[C@@H]3[C@H](O)C[C@@H]4C[C@H](O)CC[C@]4(C)[C@H]3C[C@H](O)[C@]12C [CHAPS, 3-[(3-Cholamidopropyl)dimethylammonio]-1-propanesulfonate]
- effect of modifier agent on basal ABCG2-ATPase activity (human ABCG2 protein [1]; cholesterol loaded Sf9 membrane vesicles, concentrations below the CMC, drug stimulation (5 uM quercetin) not altered, Figures 3 and 4): sigificantly decreased

Reference: patent EP2820422B1, “ABCG2 TRANSPORTER ASSAY” (priority 2012, dated 2013)
